{"source": "patent US12171763B2", "about": "“Methods and compositions comprising a KRASG12C inhibitor and a PD-L1 binding antagonist for treating lung cancer” (Genentech, Inc., priority 2020, dated 2024)", "key": {"[1]": {"system": "KRAS^G12C-positive over KRAS^G12C-negative cancer cell lines", "experiment": "Growth inhibition of KRAS G12C-positive versus KRAS G12C-negative cancer cell lines", "assay_type": "cell-based"}, "[2]": {"experiment": "Risks associated with administration of Compound 1", "settings": "in vivo"}, "[3]": {"system": "KRAS^G12C-positive lung tumors", "experiment": "Nonclinical xenograft models of KRAS G12C-positive lung tumors", "assay_type": "in vivo"}, "[4]": {"system": "KRAS^G12C-positive cancer cell lines", "experiment": "Mechanism of action studies in KRAS G12C-positive cancer cell lines", "assay_type": "cell-based"}, "[5]": {"system": "CT26.KRAS12C-Clone #12:B2G9 Syngeneic Colorectal (CRC) Tumors", "experiment": "Anti-tumor efficacy in CT26.KRAS12C-Clone #12:B2G9 syngeneic colorectal (CRC) tumor model", "assay_type": "in vivo, Balb/c mice", "method": "The combination of the adipate salt of Compound 1 with anti-PD-L1 monoclonal antibody (mAb) was assessed in the CRISPR-engineered CT26.KRAS12C-Clone #12:B2G9 mouse colorectal (CRC) syngeneic tumor model.\nTest Agents. The adipate salt of Compound 1 was in a solution at a concentration of 7.5 mg/mL in 0.5% (w/v) methylcellulose. Anti-PD-L1 mAbs (Mu IgG1 anti-PD-L1 (6E11); hereafter referred to as anti-PD-L1) was in a solution in Histidine Buffer #8 ([…] Histidine Acetate, […] Sucrose, 0.02% Tween 20™, pH 5.5). The oral-dosed vehicle control was 0.5% (w/v) methylcellulose. Test agents were stored in a refrigerator set to maintain a temperature range of 4° C.-7° C. All treatments and vehicle control dosing solutions were prepared once a week for three weeks.\nFemale Balb/c mice that were 9-10 weeks old were obtained from Charles River Laboratory (Hollister, CA) weighing an average of 22 g. Only animals that appeared to be healthy and that were free of obvious abnormalities were used for the study. Mus musculus colon carcinoma CT26 cells were obtained from the American Type Culture Collection (Rockville, MD). CT26.KRAS12C-Clone #12:B2G9 is derived from CRISPR knock-in of G12C in CT26 cells. Cells were cultured in vitro, harvested in log-phase growth, and resuspended in Hank's Balanced Salt Solution (HBSS) containing Matrigel (BD Biosciences; San Jose, CA) at a 1:1 ratio. The cells were then implanted subcutaneously in the right lateral thorax of 70 Balb/c mice. Each mouse was injected with 0.1×10^6 cells in a volume of 100 μL. Tumors were monitored until they reached a mean tumor volume of 159-228 mm^3. Mice were distributed into six groups based on tumor volumes with n=8 mice per group. The mean tumor volume across all six groups was 198 mm^3 at the initiation of dosing.\n[…] The MC vehicle and adipate salt of Compound 1 were administered on QD orally (PO) by gavage for 21 days in a volume of 100 μL. The isotope control mAbs and anti-PD-L1 mAbs were administered intravenously (IV) at 10 mg/kg for the first dose, and then dosed intraperitoneally (IP) at 5 mg/kg for subsequent doses on a twice weekly (BIW) schedule.\nTumor sizes and mouse body weights were recorded twice weekly over the course of the study. […]\nDose Preparation and Tumor and Body Weight Measurement. All concentrations were calculated based on a mean body weight of 25 g for the […] mouse strain used in this study. Tumor volumes were measured in two dimensions (length and width) using Ultra Cal-IV calipers (model 54-10-111; Fred V. Fowler Co.; Newton, MA) and analyzed using Excel, version 14.2.5 (Microsoft Corporation; Redmond WA). The tumor volume was calculated with the following formula: Tumor size(mm^3)=(longer measurement×shorter measurement^2)×0.5 […]"}, "[6]": {"system": "NSCLC", "settings": "patients in clinical studies, cited from earlier work"}}, "note": "Counter-ions that a name gives are not always drawn.", "data": [{"compound": "C=CC(=O)N1CCN(c2nc(OC[C@@H]3CCCN3C)nc3c(F)c(-c4nc(N)cc(C)c4C(F)(F)F)c(Cl)cc23)[C@@H](C)C1", "note": "(atropisomer, axis not shown) [Compound 1, 1-((S)-4-((R)-7-(6-amino-4-methyl-3-(trifluoromethyl)pyridin-2-yl)-6-chloro-8-fluoro-2-(((S)-1-methylpyrrolidin-2-yl)methoxy)quinazolin-4-yl)-3-methylpiperazin-1-yl)prop-2-en-1-one]", "values": [{"measurement": "selectivity in growth inhibition", "setting": "[1]", "value": "over 20,000 fold"}, {"measurement": "risks associated with administration", "setting": "[2]", "value": "diarrhea, nausea, vomiting, oral mucosal irritation, minimal to mild transaminase elevation, and phototoxicity"}, {"measurement": "single-agent activity on tumor growth", "setting": "[3]", "value": "inhibits tumor growth"}, {"measurement": "apoptosis induction", "setting": "[4]", "value": "apoptosis induction is observed"}, {"measurement": "downstream MAPK pathway components (pERK, pS6) and KRAS target genes (DUSP6, SPRY4)", "setting": "[4]", "value": "inhibited"}]}, {"compound": "C=CC(=O)N1CCN(c2nc(OC[C@@H]3CCCN3C)nc3c(F)c(-c4nc(N)cc(C)c4C(F)(F)F)c(Cl)cc23)[C@@H](C)C1", "note": "(atropisomer, axis not shown) [adipate salt Compound 1, 1-((S)-4-((R)-7-(6-amino-4-methyl-3-(trifluoromethyl)pyridin-2-yl)-6-chloro-8-fluoro-2-(((S)-1-methylpyrrolidin-2-yl)methoxy)quinazolin-4-yl)-3-methylpiperazin-1-yl)prop-2-en-1-one]", "values": [{"measurement": "partial responses (PRs)", "setting": "[5]; fraction of mice, Compound 1 adipate 30 mg/kg PO QD, anti-PD-L1 10/5 mg/kg BIW", "value": "⅜"}, {"measurement": "CR (complete response)", "setting": "[5]; number of mice of 8, CR = 100% decrease in tumor volume, Compound 1 adipate 30 mg/kg, anti-PD-L1 10/5 mg/kg", "value": 0}, {"measurement": "PR (partial response)", "setting": "[5]; number of mice of 8, PR = >50% decrease from initial tumor volume, Compound 1 adipate 30 mg/kg, anti-PD-L1 10/5 mg/kg", "value": 3}, {"measurement": "% TGI (estimated)", "setting": "[5]; tumor growth inhibition based on AUC, relative to vehicle, Compound 1 adipate 30 mg/kg PO QD, anti-PD-L1 10 mg/kg IV first dose then 5 mg/kg IP BIW", "value": 123, "unit": "%"}]}, {"compound": "C=CC(=O)N1CCN(c2nc(=O)n(-c3c(C)ccnc3C(C)C)c3nc(-c4c(O)cccc4F)c(F)cc23)[C@@H](C)C1", "note": "[AMG 510, sotorasib]", "values": [{"measurement": "treatment-related adverse events", "setting": "[6]; overall", "value": "56.6 % of patients"}, {"measurement": "Grade 3 events occurring in more than one patient", "setting": "[6]", "value": "ALT increase, diarrhea, anemia, AST increase, and alkaline phosphatase increase"}, {"measurement": "treatment-related Grade 3 or 4 event", "setting": "[6]", "value": "11.6 % of patients"}, {"measurement": "treatment-related serious adverse event", "setting": "[6]", "value": "1.6 % of patients"}]}]}
